PubChem BioAssay (NCI)
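Cells were grown in 96-well plates and exposed to each compound for 48 hours at five concentrations; endpoints were interpolated linearly between bracketing concentrations, or set to the highest concentration if not reached. Abbreviation: GI50, concentration required for 50% inhibition of growth. The concentration for full growth arrest is given as TGI.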

Experiments:
Assay in all cases: NCI tumour cell line growth inhibition, 48 h
RXF 393 renal = tested on: RXF 393 renal
U251 CNS = tested on: U251 CNS
CCRF-CEM leukemia = tested on: CCRF-CEM leukemia
SNB-19 CNS = tested on: SNB-19 CNS
UO-31 renal = tested on: UO-31 renal
OVCAR-8 ovarian = tested on: OVCAR-8 ovarian
ACHN renal = tested on: ACHN renal
HCT-116 colon = tested on: HCT-116 colon
MCF7 breast = tested on: MCF7 breast
NCI/ADR-RES ovarian = tested on: NCI/ADR-RES ovarian

CCCC/C=C/C1Cc2ccccc2CN1S(=O)(=O)c1ccc(C)cc1 (stereo not drawn)
TGI (RXF 393 renal): 23.9 µM | TGI (U251 CNS): 39.3 µM | TGI (CCRF-CEM leukemia): 42.3 µM | TGI (SNB-19 CNS): > 100 µM | TGI (UO-31 renal): 18.7 µM | TGI (OVCAR-8 ovarian): 28.6 µM | TGI (ACHN renal): 22.5 µM | TGI (HCT-116 colon): 3.35 µM

O=S(O)CCCCCSSCCCCSSCCCCCS(=O)O
TGI (RXF 393 renal): > 100 µM | TGI (U251 CNS): > 100 µM | TGI (CCRF-CEM leukemia): > 100 µM | TGI (SNB-19 CNS): > 100 µM | TGI (UO-31 renal): > 100 µM | TGI (OVCAR-8 ovarian): > 100 µM | TGI (ACHN renal): > 100 µM

CCn1c2c(n(CC)c1=S)-c1c(n(CC)c(=S)n1CC)SSSS2
TGI (RXF 393 renal): 7.55 µM | TGI (U251 CNS): 45.5 µM | TGI (MCF7 breast): 40.7 µM | TGI (CCRF-CEM leukemia): 9.42 µM | TGI (SNB-19 CNS): > 100 µM | TGI (UO-31 renal): 21.5 µM | TGI (OVCAR-8 ovarian): 23.3 µM | TGI (ACHN renal): 16 µM | TGI (HCT-116 colon): 11 µM

Cn1c2c(c3ccccc31)C1CCCCC1C1C(=O)NC(=O)C21 (stereo not drawn)
TGI (RXF 393 renal): > 100 µM | TGI (U251 CNS): > 100 µM | TGI (CCRF-CEM leukemia): > 100 µM | TGI (SNB-19 CNS): > 100 µM | TGI (UO-31 renal): > 100 µM | TGI (OVCAR-8 ovarian): > 100 µM | TGI (ACHN renal): > 100 µM

CC1C[C@H](OC(N)=O)C(C)CC1=O (stereo partly drawn)
TGI (RXF 393 renal): > 100 µM | TGI (U251 CNS): > 100 µM | TGI (CCRF-CEM leukemia): > 100 µM | TGI (SNB-19 CNS): > 100 µM | TGI (UO-31 renal): > 100 µM | TGI (OVCAR-8 ovarian): > 100 µM | TGI (ACHN renal): > 100 µM | TGI (HCT-116 colon): > 100 µM

C[C@]12CCC[C@H](Cl)C1(O)C[C@H](C(=O)O)CC2 (stereo partly drawn)
TGI (RXF 393 renal): > 100 µM | TGI (U251 CNS): > 100 µM | TGI (CCRF-CEM leukemia): > 100 µM | TGI (SNB-19 CNS): > 100 µM | TGI (UO-31 renal): > 100 µM | TGI (OVCAR-8 ovarian): > 100 µM | TGI (ACHN renal): > 100 µM | TGI (HCT-116 colon): > 100 µM

CC1=CC(=O)CCC2(C)C1CC[C@@H]2OC=O (stereo partly drawn)
TGI (RXF 393 renal): > 100 µM | TGI (U251 CNS): > 100 µM | TGI (CCRF-CEM leukemia): > 100 µM | TGI (SNB-19 CNS): > 100 µM | TGI (UO-31 renal): > 100 µM | TGI (OVCAR-8 ovarian): > 100 µM | TGI (ACHN renal): > 100 µM | TGI (HCT-116 colon): > 100 µM

COc1ccc2oc3c4c2c1CCC4CCC3=O (stereo not drawn)
TGI (RXF 393 renal): > 100 µM | TGI (U251 CNS): > 100 µM | TGI (CCRF-CEM leukemia): > 100 µM | TGI (SNB-19 CNS): > 100 µM | TGI (UO-31 renal): 99.5 µM | TGI (OVCAR-8 ovarian): > 100 µM | TGI (ACHN renal): > 100 µM

CSC(C1c2ccccc2N(C)C2=NC(=O)N(C)C(=O)C21Cl)S(=O)(=O)c1ccc(C)cc1 (stereo not drawn)
TGI (U251 CNS): > 100 µM | TGI (CCRF-CEM leukemia): 28.3 µM | TGI (SNB-19 CNS): > 100 µM | TGI (UO-31 renal): > 100 µM | TGI (OVCAR-8 ovarian): 46.3 µM | TGI (ACHN renal): > 100 µM | TGI (HCT-116 colon): > 100 µM

CN1C2(c3ccccc3)c3c(-c4ccccc4)sc(-c4ccccc4)c3C1(c1ccccc1)C1C(=O)N(c3ccccc3)C(=O)C12 (stereo not drawn)
TGI (RXF 393 renal): > 100 µM | TGI (U251 CNS): > 100 µM | TGI (CCRF-CEM leukemia): > 100 µM | TGI (SNB-19 CNS): > 100 µM | TGI (UO-31 renal): > 100 µM | TGI (OVCAR-8 ovarian): > 100 µM | TGI (ACHN renal): > 100 µM | TGI (HCT-116 colon): > 100 µM

CN(C)c1ccc(C(=C2C=CC(=[N+](C)C)C=C2)c2ccc(N(C)C)cc2)cc1 (tested in a mixture with another compound)
GI50 (RXF 393 renal): 0.108 µM | TGI (RXF 393 renal): 0.871 µM | TGI (U251 CNS): 1.34 µM | GI50 (NCI/ADR-RES ovarian): 0.912 µM | GI50 (CCRF-CEM leukemia): 0.231 µM | TGI (CCRF-CEM leukemia): 19.5 µM | TGI (SNB-19 CNS): 1.56 µM | TGI (UO-31 renal): 1.39 µM | GI50 (ACHN renal): 0.233 µM | TGI (ACHN renal): 1.48 µM | GI50 (HCT-116 colon): 0.039 µM | TGI (HCT-116 colon): 1.02 µM

CSc1cnn(CCC#N)c(=O)n1
TGI (RXF 393 renal): > 100 µM | TGI (U251 CNS): > 100 µM | TGI (MCF7 breast): > 100 µM | TGI (CCRF-CEM leukemia): > 100 µM | TGI (SNB-19 CNS): > 100 µM | TGI (UO-31 renal): > 100 µM | TGI (OVCAR-8 ovarian): > 100 µM | TGI (ACHN renal): > 100 µM | TGI (HCT-116 colon): > 100 µM

CC(C)c1ccccc1NC(=O)C(=O)Cc1nc2ccccc2s1
TGI (RXF 393 renal): > 100 µM | TGI (U251 CNS): > 100 µM | TGI (CCRF-CEM leukemia): > 100 µM | TGI (SNB-19 CNS): > 100 µM | TGI (UO-31 renal): > 100 µM | TGI (OVCAR-8 ovarian): > 100 µM | TGI (ACHN renal): > 100 µM | TGI (HCT-116 colon): > 100 µM

CCNCC(=O)O[C@]1(CC)C(=O)OCc2c1cc1n(c2=O)Cc2cc3ccccc3nc2-1
TGI (RXF 393 renal): 1.74 µM | TGI (U251 CNS): 6.61 µM | TGI (NCI/ADR-RES ovarian): 1.39 µM | TGI (CCRF-CEM leukemia): 0.418 µM | TGI (SNB-19 CNS): > 100 µM | TGI (UO-31 renal): 1.7 µM | TGI (OVCAR-8 ovarian): 5.68 µM | TGI (ACHN renal): 1.98 µM | TGI (HCT-116 colon): 3.29 µM

CCOC(=O)C(=O)Nc1ccc(C)cc1C
TGI (RXF 393 renal): > 100 µM | TGI (U251 CNS): > 100 µM | TGI (CCRF-CEM leukemia): > 100 µM | TGI (SNB-19 CNS): > 100 µM | TGI (UO-31 renal): > 100 µM | TGI (OVCAR-8 ovarian): > 100 µM | TGI (ACHN renal): > 100 µM | TGI (HCT-116 colon): > 100 µM

CC(=O)C1CC=C(C)CC1 (stereo not drawn)
TGI (RXF 393 renal): > 100 µM | TGI (U251 CNS): > 100 µM | TGI (CCRF-CEM leukemia): > 100 µM | TGI (SNB-19 CNS): > 100 µM | TGI (UO-31 renal): > 100 µM | TGI (OVCAR-8 ovarian): > 100 µM | TGI (ACHN renal): > 100 µM | TGI (HCT-116 colon): > 100 µM

COC(=O)C1=C(C(=O)OC)C2(OC(C)=O)c3ccccc3-c3ccccc3C12 (stereo not drawn)
TGI (RXF 393 renal): 9.17 µM | TGI (U251 CNS): 20.1 µM | TGI (SNB-19 CNS): > 55 µM | TGI (UO-31 renal): 8.97 µM | TGI (OVCAR-8 ovarian): 12.2 µM | TGI (ACHN renal): 6.48 µM | TGI (HCT-116 colon): 7.98 µM

Brc1ccc(-c2nnc(-c3nn(-c4ccccc4)c4nc5ccccc5nc34)o2)cc1
TGI (RXF 393 renal): > 100 µM | TGI (U251 CNS): > 100 µM | TGI (CCRF-CEM leukemia): > 100 µM | TGI (SNB-19 CNS): > 100 µM | TGI (UO-31 renal): > 100 µM | TGI (OVCAR-8 ovarian): > 100 µM | TGI (ACHN renal): > 100 µM | TGI (HCT-116 colon): > 100 µM

CCn1cc(/C=C/C(C)c2cn(CC)c(=O)[nH]c2=O)c(=O)[nH]c1=O (stereo not drawn)
TGI (RXF 393 renal): > 100 µM | TGI (U251 CNS): > 100 µM | TGI (CCRF-CEM leukemia): > 100 µM | TGI (SNB-19 CNS): > 100 µM | TGI (UO-31 renal): > 100 µM | TGI (OVCAR-8 ovarian): > 100 µM | TGI (ACHN renal): > 100 µM
